{"source": "patent US20120277312A1", "about": "“Ethylgallate and Related Compounds as a Treatment for Sepsis and Septic Shock” (priority 2009, published 2012)", "key": {"[1]": {"test_system": "lysozyme's vasodilatory effect in canine carotid artery preparation", "assay": "Lysozyme-induced vasodilation in canine carotid artery preparation (in-vitro)", "protocol": "Lysozyme produces vasodilation by intrinsically generating hydrogen peroxide (H2O2) that leads to activation of signaling pathways resulting in these hemodynamic effects (7).\nEthyl gallate is added to food as an antioxidant. It is the ethyl ester of gallic acid. Though found naturally in a variety of plant sources including walnuts (8), ethyl gallate is produced from gallic acid and ethanol (9). […] It is of note that if a substance could not inhibit lysozyme's effect in-vitro, then it would be worthless to pursue an in-vivo study."}, "[2]": {"molecular_target": "T1, catalase (Homo sapiens, UniProt P04040)", "T1 sequence (P04040 2-527 limits assumed)": "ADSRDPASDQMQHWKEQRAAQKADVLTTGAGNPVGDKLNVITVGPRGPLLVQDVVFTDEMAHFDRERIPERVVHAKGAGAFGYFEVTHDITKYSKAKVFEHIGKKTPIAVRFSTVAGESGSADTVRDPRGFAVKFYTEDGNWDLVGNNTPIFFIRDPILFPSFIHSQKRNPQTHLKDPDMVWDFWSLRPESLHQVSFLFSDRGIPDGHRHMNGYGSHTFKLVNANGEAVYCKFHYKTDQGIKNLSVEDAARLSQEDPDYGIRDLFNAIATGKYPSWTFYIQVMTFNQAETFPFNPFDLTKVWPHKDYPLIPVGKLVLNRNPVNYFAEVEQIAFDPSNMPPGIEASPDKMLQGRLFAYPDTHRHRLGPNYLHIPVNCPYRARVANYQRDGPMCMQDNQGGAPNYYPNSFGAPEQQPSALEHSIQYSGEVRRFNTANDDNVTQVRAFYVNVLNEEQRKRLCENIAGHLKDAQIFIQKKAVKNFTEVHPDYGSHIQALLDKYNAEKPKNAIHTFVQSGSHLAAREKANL", "assay": "Conversion of catalase to compound I (wave-scan spectroscopy)", "type": "biochemical", "text": "This generation appears to involve the mechanism described by Wentworth et al in which proteins can utilize water as a catalyst to generate H2O2 (12) Once formed by lysozyme, H2O2 then reacts with intrinsic catalase to form a species of catalase termed Compound I (2) Compound I then acts to generate cyclic-guanosine monophosphate which in turn causes vasodilation. […] These as well as other mechanisms may account for the efficacy of ethyl-gallate treatment in septic shock."}, "[3]": {"test_system": "POX-induced vasodilation in carotid and superior mesenteric arterial preparations", "assay": "Peroxacetic acid (POX)-induced vasodilation in carotid and superior mesenteric arterial preparations", "set-up": "species or system canine", "text": "POX is a hydroperoxide (slightly different from the molecule of hydrogen peroxide) that also may be released in septic shock by macrophages and inflammatory cells. […] However, the pathway by which POX caused vasodilation is much different than that caused by lysozyme. […] To some extent, therefore, the improvement in hemodynamics previously observed when ethyl-gallate was infused in our in-vivo study could have also been related to ethyl-gallate's inhibition of the POX pathway in addition to ethyl-gallate's inhibitory-effect on lysozyme mediated pathways.\nThe only similarity found between lysozyme and POX is that POX's mechanism of action is also independent of the endothelium and nitric oxide formation, since we could not prevent POX's vasodilatory effect by removal of the endothelium or by nitric oxide inhibition. In contrast to lysozyme, POX seems to cause vasodilation is by activation of an enzyme in the vascular tissue called prostaglandin H synthase (PHS). PHS has an important mechanism of action, in that after activation by hydroperoxides (such as POX), it can in turn activate the cyclooxygenase pathway leading to vasodilation."}}}
{"smiles": "CCOC(=O)c1cc(O)c(O)c(O)c1", "note": "[ethyl gallate]", "values": [{"measurement": "prevention of vasodilation caused by lysozyme", "setting": "[1]; canine carotid artery and superior mesenteric arterial preparations", "value": "prevented"}, {"measurement": "block of lysozyme's vasodilatory effect", "setting": "[1]; canine carotid artery preparation, in-vitro", "value": "blocked"}, {"measurement": "inhibition of degradation of catalase to compound I", "setting": "[2]", "value": "can inhibit"}, {"measurement": "inhibition of vasodilation caused by POX", "setting": "[3]", "value": "inhibited"}]}
